For series [1] the following is noted: cited from earlier work.
The subject of series [2] is promyelocytic leukemia cells. As to conditions: relative to all-trans retinoic acid; cited from earlier work.
The conditions of series [3]: clinical trials; cited from earlier work.
In the next series the test system is skin of albino rabbits. The series is described as follows: Acute dermal irritation/corrosion (OECD 404), single topical 4-hour application. Format: in vivo. As to the method:
A study was conducted based upon the following references: OECD 404, Organization for Economic Co-Operation and Development (OECD), Guidelines for the Testing of Chemicals, “Acute Dermal Irritation/Corrosion”, adopted 24 Apr. 2002. ISO 10993-12, 2012, Biological Evaluation of Medical Devices—Part 12: Sample Preparation and Reference Materials. ISO/IEC 17025, 2005. General Requirements for the Competence of Testing and Calibration Laboratories.
The skin of three albino rabbits was prepared for testing by clipping the skin of the trunk free of hair at the application sites within 24 hours of the test. The sites of application were not abraded deliberately or accidentally during preparation. Tamibarotene was administered at dose levels of 0.02%, 0.04%, and 0.08% in 60% DMSO. The animals were treated by introducing each dose level (0.5 ml) under gauze patches at individual application sites. The control (0.5 ml of 60% DMSO) was applied to a fourth site.
As it was suspected that tamibarotene might produce severe irritancy/corrosion, a single animal test was initially employed. Test patches of each dose level and control were applied. After three minutes, the skin sites were examined by gently lifting the bandage to examine the skin without bandage removal. […] If a corrosion effect was observed after three minutes or one hour, the test was to be immediately terminated.
Because an irritation or corrosive effect was not observed in the initial test after one hour, the response was confirmed using two additional animals dosed with each dose level and control at individual application sites for four hours. At the end of the exposure period, the wrapping was removed from and the skin washed with USP sterile Water for Injection (SWFI) to remove any test substance still remaining. […] Observations were scored according to the Draize Scale for Scoring Skin Reactions.

For the compound `CC1=C(/C=C/C(C)=C/C=C/C(C)=C/C(=O)O)C(C)(C)CCC1` [ATRA, all-trans retinoic acid], the “plasma concentration during daily administration” value in series [1] is “declines considerably”.

For the compound `CC1(C)CCC(C)(C)c2cc(NC(=O)c3ccc(C(=O)O)cc3)ccc21` [tamibarotene, Benzoic acid,4-[[(5,6,7,8-tetrahydro-5,5,8,8-tetramethyl-2-naphthalenyl)amino]carbonyl]—], the “potency as an inducer of differentiation compared to ATRA” value in series [2] is given as “several times more potent”. Moreover, the “adverse side effects compared to ATRA” value in series [3] is listed as “milder”. Moreover, in the series on skin of albino rabbits (initial single animal test, 0.02%, 0.04%, 0.08% in 60% DMSO, after one hour), the “irritation or corrosive effect after one hour” value is given as “not observed”. The “serious skin reaction after three minutes” value with skin of albino rabbits (initial single animal, 0.02%, 0.04%, 0.08% in 60% DMSO, 0.5 ml under gauze patches, examined after three minutes) was “no serious skin reaction was observed”. Besides, the “primary dermal irritation classification” value in the series with skin of albino rabbits (single topical 4-hour application, dose levels 0.02%, 0.04%, 0.08% in 60% DMSO) is given as “non-irritant”. The body weight result in the series on skin of albino rabbits (three albino rabbits, during the study) is on record as “gained weight”. Further, the “signs of erythema or edema (Draize Scale)” value in the series with skin of albino rabbits (three rabbits, 4-hour exposure, 0.02%, 0.04%, 0.08% in 60% DMSO, observed 60 minutes, 24, 48, 72 hours after bandage removal) is listed as “None of the test sites presented any signs of erythema or edema”. Besides, the “plasma concentration during daily administration” value in series [1] is listed as “sustains plasma level”.

Source of the values: patent publication US11039995B2, “Topical compositions for reducing the effects of aging” (Samson Pharma, LLC, priority 2013, dated 2021).
